Laboratory results taken from paper PMC9120017, “Inhibition mechanism of the chloride channel TMEM16A by the pore blocker 1PBC” (Nature Communications, 2022).
pIC50: −log10 of the molar value. Read-outs that look alike come from different tables or passages of the source.

Biological target: T1, mouse TMEM16A mutant I512A (Mus musculus, UniProt Q8BHY3, I512A)
T1 construct: expressed in transfected cells; host or cells: HEK293T
T1 sequence (Q8BHY3 1-960 I512A): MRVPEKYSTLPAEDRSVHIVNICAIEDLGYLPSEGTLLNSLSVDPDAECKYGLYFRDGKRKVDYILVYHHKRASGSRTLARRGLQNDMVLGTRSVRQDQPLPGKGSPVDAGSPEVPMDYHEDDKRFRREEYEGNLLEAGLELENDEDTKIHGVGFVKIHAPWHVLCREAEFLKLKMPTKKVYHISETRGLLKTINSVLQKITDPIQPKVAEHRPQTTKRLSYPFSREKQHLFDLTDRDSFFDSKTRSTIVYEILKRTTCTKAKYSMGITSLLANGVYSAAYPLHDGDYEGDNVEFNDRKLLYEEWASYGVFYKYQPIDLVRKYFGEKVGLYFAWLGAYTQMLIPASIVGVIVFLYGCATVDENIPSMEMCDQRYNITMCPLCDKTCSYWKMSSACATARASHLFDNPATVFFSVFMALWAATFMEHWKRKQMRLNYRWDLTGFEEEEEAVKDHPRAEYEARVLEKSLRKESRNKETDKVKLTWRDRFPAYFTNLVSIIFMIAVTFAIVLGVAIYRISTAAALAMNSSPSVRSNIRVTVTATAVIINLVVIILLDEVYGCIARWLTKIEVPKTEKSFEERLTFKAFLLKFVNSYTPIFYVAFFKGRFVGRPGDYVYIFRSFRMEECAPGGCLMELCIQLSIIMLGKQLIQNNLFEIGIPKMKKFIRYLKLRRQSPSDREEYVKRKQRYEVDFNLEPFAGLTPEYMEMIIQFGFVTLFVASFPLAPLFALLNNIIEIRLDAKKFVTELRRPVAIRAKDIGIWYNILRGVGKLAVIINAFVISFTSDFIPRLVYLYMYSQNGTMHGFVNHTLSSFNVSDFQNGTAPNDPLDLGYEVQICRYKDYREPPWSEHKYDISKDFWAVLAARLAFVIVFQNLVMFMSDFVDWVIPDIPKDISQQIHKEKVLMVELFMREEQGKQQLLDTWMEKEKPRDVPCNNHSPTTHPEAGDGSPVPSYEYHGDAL
Test: Inside-out patch recording of 1PBC block, mutant I512A
Assay type: cell-based
Details: for remaining activity at 30 µM: 1PBC 30; for remaining activity at 30 µM / remaining activity at 100 µM: read-out: fraction of unblocked current; for remaining activity at 100 µM: 1PBC 100
Experimental: HEK293T cells (ATCC CRL-1573) were maintained in Dulbecco’s modified Eagle’s medium (DMEM; Sigma-Aldrich) supplemented with 10 U ml^−1 penicillin, 0.1 mg ml^−1 streptomycin (Sigma-Aldrich), 2 mM L-glutamine (Sigma-Aldrich), and 10% FBS (Sigma-Aldrich) in a humidified atmosphere containing 5% CO2 at 37 °C. HEK293S GnTI^− cells (ATCC CRL-3022) were maintained in HyClone HyCell TransFx-H medium (GE Healthcare) supplemented with 10 U ml^−1 penicillin, 0.1 mg ml^−1 streptomycin, 4 mM L-glutamine, 0.15% poloxamer 188 (Sigma-Aldrich), and 1% FBS in an atmosphere containing 5% CO2 at 185 rpm at 37 °C. The ac splice variant of mouse TMEM16A (UniProt ID: Q8BHY3), mouse TMEM16B (UniProt ID: Q8CFW1), or mouse TMEM16F (UniProt ID: Q6P9J9) bearing a 3C cleavage site, a Venus YFP, a Myc tag, and a Streptavidin-binding peptide (SBP) downstream of the open reading frame in a modified pcDNA3.1 vector (Invitrogen) were used as described previously[21],[31]. Mutations were introduced using a modified QuikChange method[58] and were verified by sequencing.
HEK293T cells were transfected with 3–4 μg DNA per 6 cm Petri dish using the calcium phosphate co-precipitation method and were used within 24–96 h after transfection. Recordings were performed on inside-out patches excised from HEK293T cells expressing the construct of interest. Patch pipettes were pulled from borosilicate glass capillaries (O.D. 1.5 mm, I.D. 0.86 mm, Sutter Instrument) and were fire-polished with a microforge (Narishige) before use. Pipette resistance was typically 3–8 MΩ when filled with the recording solutions detailed below. Seal resistance was typically 4 GΩ or higher. Voltage-clamp recordings were made using Axopatch 200B, Digidata 1550, and Clampex 10.7 (Molecular Devices). Analog signals were filtered with the in-built 4-pole Bessel filter at 10 kHz and were digitized at 20 kHz. Solution exchange was achieved using a gravity-fed system through a theta glass pipette mounted on an ultra-fast piezo-driven stepper (Siskiyou). […] All recordings were performed at 20 °C.
A symmetrical ionic condition was used throughout. Stock solution with Ca^2+-EGTA contained 150 mM NaCl, 5.99 mM Ca(OH)2, 5 mM EGTA, and 10 mM HEPES at pH 7.40. Stock solution with EGTA contained 150 mM NaCl, 5 mM EGTA, and 10 mM HEPES at pH 7.40. Free Ca^2+ concentrations were adjusted by mixing the stock solutions at the required ratios calculated using the WEBMAXC program (http://web.stanford.edu/~cpatton/webmaxcS.htm). Patch pipettes were filled with the stock solution with Ca^2+-EGTA, which has a free Ca^2+ concentration of 1 mM. 1PBC (ChemBridge) stock was reconstituted in anhydrous DMSO (Sigma-Aldrich) at 100 mM and stored at −20 °C. Working solutions with 1PBC were prepared by serial dilution. Unless otherwise stated, experiments were performed at a saturating Ca^2+ concentration as shown in Supplementary Table 1 and the primary data were corrected for current rundown as described previously[21],[25].
Concentration-response relations, obtained from the ratio of the I-V plots before and after the application of the blocker, were fitted to the Hill equation,1 I/Imax=1/1+IC50/[blocker]^h where I/Imax is the normalized current responses, IC50 defines the concentration at which inhibition is at its half-maximum, and h is the Hill coefficient.

N#Cc1c(C(F)(F)F)cc(O)n2c1nc1ccccc12 [1PBC]
remaining activity at 30 µM (-60 mV): 62.3%
remaining activity at 30 µM (-80 mV): 65.6%
remaining activity at 30 µM (-100 mV): 68.2%
remaining activity at 30 µM (-120 mV): 70.8%
remaining activity at 30 µM (-140 mV): 72%
remaining activity at 100 µM (0 mV): 23.3%
remaining activity at 100 µM (20 mV): 19.1%
remaining activity at 100 µM (40 mV): 18.1%
remaining activity at 100 µM (60 mV): 15.6%
remaining activity at 100 µM (80 mV): 14%
remaining activity at 100 µM (100 mV): 13.1%
remaining activity at 100 µM (120 mV): 12.2%
remaining activity at 100 µM (140 mV): 12.1%
remaining activity at 100 µM (-20 mV): 27.5%
remaining activity at 100 µM (-40 mV): 29.4%
remaining activity at 100 µM (-60 mV): 32.8%
remaining activity at 100 µM (-80 mV): 36%
remaining activity at 100 µM (-100 mV): 39.7%
remaining activity at 100 µM (-120 mV): 42.4%
remaining activity at 100 µM (-140 mV): 45.3%
pIC50 (20 mV, 2 µM Ca2+): 4.59
pIC50 (40 mV, 2 µM Ca2+): 4.66
pIC50 (60 mV, 2 µM Ca2+): 4.72
log-fold IC50 (change of mutant vs WT) (80 mV): 0.8662
pIC50 (80 mV, 2 µM Ca2+): 4.77
pIC50 (100 mV, 2 µM Ca2+): 4.80
pIC50 (120 mV, 2 µM Ca2+): 4.80
pIC50 (140 mV, 2 µM Ca2+): 4.78
pIC50 (-20 mV, 2 µM Ca2+): 4.43
pIC50 (-40 mV, 2 µM Ca2+): 4.37
pIC50 (-60 mV, 2 µM Ca2+): 4.30
pIC50 (-80 mV, 2 µM Ca2+): 4.24
pIC50 (-100 mV, 2 µM Ca2+): 4.18
pIC50 (-120 mV, 2 µM Ca2+): 4.13
pIC50 (-140 mV, 2 µM Ca2+): 4.09
pIC50 (I512A, V 0 mV): 4.51
pIC50 (I512A, V 20 mV): 4.59
pIC50 (I512A, V 40 mV): 4.66
pIC50 (I512A, V 60 mV): 4.72
pIC50 (I512A, V 80 mV): 4.77
pIC50 (I512A, V 100 mV): 4.80
pIC50 (I512A, V 120 mV): 4.80
pIC50 (I512A, V 140 mV): 4.78
pIC50 (I512A, V -20 mV): 4.43
pIC50 (I512A, V -40 mV): 4.37
pIC50 (I512A, V -60 mV): 4.30
pIC50 (I512A, V -80 mV): 4.24
pIC50 (I512A, V -100 mV): 4.18
pIC50 (I512A, V -120 mV): 4.13
pIC50 (I512A, V -140 mV): 4.09
